Values of other authors as cited in the PKSmart pharmacokinetics tables (Seal et al. 2025).

Assay: Lombardo, Berellini, Obach 2018, Drug Metab Dispos 46:1466, doi 10.1124/dmd.118.082966
Conditions: human; for MRT / Vd / clearance / half-life: in vivo, iv; for fraction unbound: plasma

| Structure (SMILES) | MRT [h] | Vd [L/kg] | clearance [mL/min/kg] | half-life [h] | fraction unbound |
| --- | --- | --- | --- | --- | --- |
| CN(C)c1cc(NC(=O)CNC(C)(C)C)c(O)c2c1C[C@H]1C[C@H]3[C@H](N(C)C)C(O)=C(C(N)=O)C(=O)[C@@]3(O)C(O)=C1C2=O | 53 | 12 | 3.8 | 48 | 0.2 |
| CC(C)=c1nc(N(C)S(C)(=O)=O)nc(-c2ccc(F)cc2)c1=CC[C@@H](O)C[C@@H](O)CC(=O)O | 2.6 | 1.7 | 11 | 2 | – |
| CCN1C[C@H]2CN(C)C[C@@H](C1)C2OC(=O)c1ccc(Cl)cc1 (some centres undefined) | 8.8 | 9 | 17 | 8.6 | – |
| C#Cc1cccc(Nc2ncnc3cc(OC)c(OCCCCCCC(O)=NO)cc23)c1 | 0.78 | 0.56 | 12 | 5.01 | – |
| CCCCNC(=N)NC(=N)N | 4.66 | 1.84 | 6.58 | 4.62 | – |
| COc1cc(C2c3cc4c(cc3C(OC3OC5COC(C)OC5C(O)C3N(C)C)C3COC(=O)C23)OCO4)cc(OC)c1O (centres undefined) | 17 | 0.3 | 0.4 | 14 | 0.013 |
| COP(=O)(c1cc(C)cc(/C=C/C#N)c1)c1c(C(N)=O)[nH]c2ccc(Cl)c(F)c12 (centres undefined) | 8.9 | 0.97 | 1.83 | 7.4 | – |
| CC(C(=O)O)c1ccc2c(c1)[nH]c1ccc(Cl)cc12 (centres undefined) | 7.2 | 0.22 | 0.51 | 9.9 | 0.001 |
| Nc1nc(Cl)nc2c1ncn2[C@H]1C[C@H](O)[C@@H](CO)O1 | 9.2 | 7.7 | 14 | 16 | 0.79 |
| Clc1ccc(COC(Cn2ccnc2)c2ccc(Cl)cc2Cl)c(Cl)c1 (centres undefined) | 12.6 | 7.14 | 9.48 | 19.8 | 0.08 |
| CCCCC(=O)N(Cc1ccc(-c2ccccc2-c2nnn[nH]2)cc1)C(C(=O)O)C(C)C (centres undefined) | 7.5 | 0.22 | 0.49 | 9.5 | 0.04 |
| CN1[C@@H]2CC[C@H]1C[C@@H](OC(=O)c1c[nH]c3ccccc13)C2 | 6.3 | 9.7 | 26 | 5.6 | – |
| CS(=O)(=O)c1ccc2c(c1)N(CCCN1CCC(C(N)=O)CC1)c1ccccc1S2 | – | – | 12.1 | 4 | – |
| Nc1nc2c(ncn2COC(CO)CO)c(=O)[nH]1 | 3.7 | 1 | 4.6 | 3.7 | – |
| CCOP(=O)(OCC)[C@@H](NC(=O)[C@]1(O)[C@@H](O)[C@@]2(CC)C=CCN3CC[C@]4(c5cc([C@@]6(C(=O)OC)C[C@H]7C[N@@](CCc8c6[nH]c6ccccc86)C[C@@](O)(CC)C7)c(OC)cc5N(C)[C@@H]14)[C@@H]32)C(C)C | 22.2 | 4.67 | 3.5 | 34.3 | 0.1 |
| CCOc1nc2cccc(C(=O)O)c2n1Cc1ccc(-c2ccccc2-c2nnn[nH]2)cc1 | 5.9 | 0.13 | 0.37 | 9.7 | 0.002 |
| C[C@H]1CN(c2c(F)cc3c(=O)c(C(=O)O)cn(C4CC4)c3c2OC(F)F)CCN1 | 7.1 | 1.1 | 2.7 | 5.9 | – |
| CON=C(C(=O)NC1C(=O)N2C(C(=O)[O-])=C(C[n+]3ccc(-c4cnco4)cc3)CS[C@H]12)c1csc(N)n1 (some centres undefined) | 2.64 | 0.22 | 1.76 | 1.78 | – |
| COc1cccc2c1c(NS(=O)(=O)c1ccc(Cl)s1)nn2Cc1cccc(CNC(=O)C(C)(C)O)c1 | 5.43 | 1.65 | 5.1 | 13.5 | – |
| CON=C(C(=O)NC1C(=O)N2C(C(=O)O)=C(CSc3nc(=O)c(O)nn3C)CS[C@H]12)c1csc(N)n1 (some centres undefined) | 9.6 | 0.12 | 0.22 | 7.6 | 0.1 |
| CC(=O)NC(CSSCC(N)C(=O)O)C(=O)NC(C)C(=O)NC(CCCNC(=N)N)C(=O)NC(CCCNC(=N)N)C(=O)NC(CCCNC(=N)N)C(=O)NC(C)C(=O)NC(CCCNC(=N)N)C(N)=O (centres undefined) | 19.9 | 1.98 | 1.67 | – | – |
| NC(=O)c1cccc(N)c1 | 4 | 1.9 | 7.9 | 5 | – |
| N#Cc1ccc2[nH]cc(CCCCN3CCN(c4ccc5oc(C(N)=O)cc5c4)CC3)c2c1 | 21.5 | 4.85 | 3.76 | 15.7 | 0.03 |
| CO[C@H]1/C=C/O[C@@]2(C)Oc3c(C)c(O)c4c(O)c(c(/C=N/N5CCN(C)CC5)c(O)c4c3C2=O)NC(=O)C(C)=CC=CC(C)[C@H](O)[C@@H](C)[C@@H](O)[C@@H](C)[C@H](OC(C)=O)[C@@H]1C (some centres undefined) | 4.6 | 0.97 | 3.5 | – | – |
| CC1C(=O)O[C@H]2C[C@@]34[C@H]5C[C@@H](C(C)(C)C)C36C(O)C(=O)O[C@H]6OC4(C(=O)O5)[C@@]12O (some centres undefined) | 4.6 | 0.62 | 2.3 | 3.8 | – |

| Structure (SMILES) | MRT [h] | Vd [L/kg] | clearance [mL/min/kg] | half-life [h] | fraction unbound |
| --- | --- | --- | --- | --- | --- |
| CC(=O)O[C@H]1C[C@@H]2CC[C@@H]3[C@H](CC[C@@]4(C)[C@H]3C[C@H]([N+]3(C)CCCCC3)[C@@H]4OC(C)=O)[C@@]2(C)C[C@@H]1[N+]1(C)CCCCC1 | 2.2 | 0.2 | – | 1.9 | 0.09 |
| N#Cc1ccc2c(c1)CN(S(=O)(=O)c1cccs1)[C@H](Cc1ccccc1)CN2Cc1cnc[nH]1 | 1.4 | 0.84 | 9.6 | 1.6 | 0.01 |
| COc1cc2c(cc1OC)C(Cc1cc(OC)c(OC)c(OC)c1)[N+](C)(CCCOC(=O)CC/C=C/CCC(=O)OCCC[N+]1(C)CCc3cc(OC)c(OC)cc3C1Cc1cc(OC)c(OC)c(OC)c1)CC2 (centres undefined) | 0.87 | 0.27 | 5.2 | 0.83 | 0.7 |
| CCC(=O)OCC(=O)[C@@]1(OC(=O)CC)[C@@H](C)C[C@H]2[C@@H]3CC=C4CC(=O)C=C[C@]4(C)[C@@]3(Cl)[C@@H](O)C[C@@]21C | 0.1 | 0.29 | 36 | 0.5 | 0.13 |
| CCCn1c(=O)[nH]c(=O)c2nc[nH]c21 | 2.6 | 0.63 | 4 | 1.8 | 0.55 |
| CCOC(=O)C(CCc1ccccc1)NC(C)C(=O)N1CC2(CC1C(=O)O)SCCS2 (centres undefined) | 0.61 | 0.43 | 11.9 | 8.6 | – |
| COc1c(N2C[C@@H](C)C[C@H](N)C2)ccc2c(=O)c(C(=O)O)cn(C3CC3)c12 | 8.4 | 1.9 | 3.8 | 13.5 | – |
| CNC(=O)N(N(CCCl)S(C)(=O)=O)S(C)(=O)=O | 0.63 | 0.88 | 23.1 | 0.49 | – |
| CCCCCCCC(=O)N[C@H](CN1CCCC1)[C@H](O)c1ccc2c(c1)OCCO2 | – | – | 20.9 | 7.7 | 0.21 |
| CN1CC[C@]23c4c5ccc(O)c4O[C@H]2[C@@H](O[C@@H]2OC(C(=O)O)[C@@H](O)[C@H](O)[C@H]2O)C=C[C@H]3[C@H]1C5 (some centres undefined) | 0.91 | 0.12 | 2.2 | 1.4 | 0.67 |
| CCC1=C[C@@H]2CN(C1)Cc1c([nH]c3ccccc13)[C@@](C(=O)OC)(c1cc3c(cc1OC)N(C)[C@H]1[C@@](O)(C(=O)OC)[C@H](OC(C)=O)[C@]4(CC)C=CCN5CC[C@]31[C@@H]54)C2 | 18 | 23 | 20 | 26 | 0.87 |
| O=C(O)CCCCN(CCc1ccccc1OCc1ccc(CCc2ccccc2)cc1)Cc1ccc(C(=O)O)cc1 | 0.44 | 0.24 | 9 | 0.25 | – |
| NNC(=O)c1ccncc1 | 1.8 | 0.82 | 7.4 | – | 1 |
| CN1Cc2c(N)cccc2C(c2ccccc2)C1 (centres undefined) | 4.5 | 6 | 22 | 6.5 | – |
| C[C@@H](N/C(=N\c1ccncc1)NC#N)C(C)(C)C | 3.2 | 1.1 | 5.68 | 2.5 | 0.6 |
| Cn1c(=O)c2nc[nH]c2n(C)c1=O | – | – | – | 7.2 | – |
| CC(=O)Nc1c(I)c(C(=O)O)c(I)c(N(C)C(C)=O)c1I | 1 | 0.17 | 2.7 | 1.3 | 1 |
| COCOCC(CCC1(C(=O)NC2CCC(C(=O)O)CC2)CCCC1)C(=O)O (centres undefined) | 1.81 | 0.25 | 2.3 | 16 | 0.872 |
| N=C(N)NC(=O)Cc1c(Cl)cccc1Cl | 22 | 5.6 | 4.5 | 15 | – |
| CCc1[nH]c(=O)[nH]c1C(=O)c1ccncc1 | 1.2 | 0.65 | 9.03 | 1.32 | – |
| Cc1cn[nH]c1 | 7.94 | 0.35 | 0.73 | 4.42 | – |
| CCCNc1nc(NCCC)nc(N(C)OC)n1 | 3.04 | 2.17 | 11.9 | 5.61 | – |
| CCC[C@@H]1CC(=O)N(C(CC)C(N)=O)C1 (some centres undefined) | 12.5 | 0.56 | 0.75 | 8.98 | 0.825 |
| CCCc1c2oc(C(=O)O)cc(=O)c2cc2c(=O)cc(C(=O)O)n(CC)c12 | 0.7 | 0.43 | 10.2 | 0.9 | 0.11 |
